The conditions of data set [1]: as disclosed in co-pending application; cited from earlier work.
Data set [2] can be described thus: aqueous solubility of crystalline Compound (I). The class given is physicochemical. The note with it: water (aqueous); crystalline material P-1. An excerpt:
Compound (I) exists in several different crystalline forms: P-1, P-2, P-3, and P-4. […] The present invention relates to formulations that effectively deliver Compound (I).

Here are results for two compounds from US20100292246A1, “FORMULATIONS OF 1-(4-BENZOYL-PIPERAZIN-1-YL)-2-[4-METHOXY-7-(3-METHYL-[1,2,4]TRIAZOL-1-YL)-1H-PYRROLO[2,3-C]PYRIDIN-3-YL]-ETHANE-1,2-DIONE” (Bristol-Myers Squibb Company, priority 2004, published 2010).

The structures appear in SMILES notation. In brackets after ≈: the same amount, converted by molar mass.

For the compound `COc1cnc(-n2cnc(C)n2)c2[nH]cc(C(=O)C(=O)N3CCN(C(=O)c4ccccc4)CC3)c12` [Compound (I), 1-(4-benzoyl-piperazin-1-yl)-2-[4-methoxy-7-(3-methyl-[1,2,4]triazol-1-yl)-1H-pyrrolo[2,3-c]pyridin-3-yl]-ethane-1,2-dione], the “solubility of Compound (I) in crystalline form” value in data set [1] was “typically low”.

Broadly, the solubility is how much of the substance goes into solution per volume. `COc1cnc(-n2cnc(C)n2)c2[nH]cc(C(=O)C(=O)N3CCN(C(=O)c4ccccc4)CC3)c12` [Sample P-1, 1-(4-benzoyl-piperazin-1-yl)-2-[4-methoxy-7-(3-methyl-[1,2,4]triazol-1-yl)-1H-pyrrolo[2,3-c]pyridin-3-yl]-ethane-1,2-dione] yielded a solubility in data set [2] of 2.7 µg/mL (≈ 5.7 µM).
